The text below walks through data of PMC4965013, “Open Source Drug Discovery with the Malaria Box Compound Collection for Neglected Diseases and Beyond” (PLoS Pathogens, 2016).

One data set concerns Dictyostelium discoideum. As to conditions: 7.5 µM; ref [150]; cited from earlier work.
The test system of the next data set is Cryptosporidium parvum. The data set can be described thus: Cryptosporidium parvum high content microscopy in HCT-8.
In data set [1] the test system is Mycobacterium marinum in Acanthamoeba castellanii. Set-up: method as in ref [150] (a number printed in a supplementary file, which may have a reference list of its own: not looked up in the article's list). As to conditions: 30 µM; ref [150]; cited from earlier work.
The subject of another data set is Mycobacterium marinum. The data set can be described thus: M. marinum antibiotic assay. Type of data set: cell-based. The note with it: 10µM. On the procedure:
Columns FA-FC: Soldati Group (data presented first in this paper). M. marinum, D. discoideum, and Acathamoeba castellani assays. Each compound of the Malaria Box has been assayed at 10 µM in all three assays. First, the antibiotic activity was assayed directly against Mycobacterium marinum in its culture medium. Second, the toxicity and growth inhibitory effect of the compounds was assayed against the amoeba Dictyostelium discoideum in its culture medium. Finally, the “in cellulo” anti-infective activity of each compound was tested using the intracellular infection system Acanthamoeba castellanii-M. marinum. Values have been normalized using the DMSO carrier. For each assay, values have been normalized to 1.00 using the DMSO carrier, which has no detectable effect on D. discoideum nor M. marinum growth, while rifabutin was used as positive control for the antibiotic assay and the infection assay, as it abolishes M. marinum growth (normalized value under 0.10) in broth at 10 µM and intracellularly at 30 µM [150].

For data set [2], the system named is P. falciparum 3D7 trophozoites. In words: Metabolomic fingerprint profiling LC-MS. Type of data set: cell-based, Plasmodium falciparum. Also on record: UDP-D-glucose / ADP-D-glucose: unit not given here.
For data set [3], the target named is T1, 6-Phosphogluconolactonase (Plasmodium falciparum, UniProt Q8IKU0).
T1 construct: […]; His6 with linker ([…]) (N); made in house
In words: Bioaffinity Mass Spectrometry Screening, 6-Phosphogluconolactonase. Type of data set: binding. As to conditions: compound:protein ~5:1. On the procedure:
(§1) Bioaffinity Mass Spectrometry Screening Method
(§2) Recombinant proteins were prepared by the Van Voorhis group according to the same protocol as in [25]. Proteins were buffer-exchanged into a suitable volatile buffer (ammonium acetate or ammonium bicarbonate) for native ESI-MS. Depending on the protein, the buffer and its concentration is chosen to obtain the highest sensitivity in the mass spectrometer. We have chosen ammonium acetate buffer (10mM, pH 7) for these two proteins, dUTPase and 6-Phosphogluconolactonase.
(§3) High-resolution Fourier transform mass spectrometry (FTMS) can identify the molecular weight of the bound ligand. The difference between the mass-to-charge ratio (Δm/z) for the unbound protein and the [protein-bound ligand] complex ions was multiplied by the charge state (z) to directly afford the molecular weight of the bound ligand, using the following equation.
(§4) The BMSS assay was performed on 400 Malaria Box compounds against 25 Plasmodium falciparum proteins, which are critical in malaria cell growth and invasion. Pools of eight Malaria Box compounds (each compound 1 µL, 1 mM in methanol) were incubated with a P. falciparum protein one hour at room temperature. When a non-covalent complex was found, the molecular weight of the binding compound was deducted from the spectrum. On the basis of this information, a binding confirmation on the selected compound was performed. […]

Data set [4] deals with P. falciparum Dd2 apicoplast. As to conditions: ref [61]; cited from earlier work.
The subject of the next data set is P. falciparum. In words: EC50 listed in S2 Table Metabolomics (used to set the concentration tested). Type of data set: cell-based. The note with it: Plasmodium falciparum; EC50 used for Factor_XEC50 in metabolomics; read-out: EC50_nM.
Data set [5] has as its system P. falciparum W2 apicoplast. The note with it: ref [60]; cited from earlier work.
The subject of data set [6] is Schistosoma mansoni schistosomula (somules). In words: S. mansoni somules phenotypic screen Caffrey. The note with it: 2.5 µM, 48 h.
The subject of data set [7] is S. mansoni newly transformed schistosomula (NTS). Also on record: method as in ref [91] (a number printed in a supplementary file, which may have a reference list of its own: not looked up in the article's list). As to conditions: ref [91]; read-out: Schistosoma mansoni newly transformed schistosomula EC50 J. Keiser; cited from earlier work.
In another data set the test system is S. mansoni adult worms. Set-up: method as in ref [91] (a number printed in a supplementary file, which may have a reference list of its own: not looked up in the article's list). The note with it: ref [91]; read-out: Schistosoma mansoni adult worm EC50 J. Keiser; cited from earlier work.
In data set [8] the test system is Schistosoma mansoni adult males. The data set can be described thus: S. mansoni adult phenotypic and motility screen Caffrey.
The test system of another data set is PfCDPK4. As to conditions: ref [25]; cited from earlier work.
Another data set concerns the target T2, dUTPase (Plasmodium falciparum, UniProt Q8II92).
T2 construct: […]; made in house
The data set can be described thus: Bioaffinity Mass Spectrometry Screening, dUTPase. As to conditions: compound:protein ~5:1. The format is binding. As to the method: as §1, §2, §3, §4

Setting [9] is: metabolite level change after treatment.

T2 sequence (Q8II92 whole entry, added parts left off): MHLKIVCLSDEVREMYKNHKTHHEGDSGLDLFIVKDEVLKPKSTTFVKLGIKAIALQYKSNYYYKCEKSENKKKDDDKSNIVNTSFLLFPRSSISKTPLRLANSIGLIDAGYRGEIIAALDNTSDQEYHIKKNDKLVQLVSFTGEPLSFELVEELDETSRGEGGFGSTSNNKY
T1 sequence (Q8IKU0 1-327): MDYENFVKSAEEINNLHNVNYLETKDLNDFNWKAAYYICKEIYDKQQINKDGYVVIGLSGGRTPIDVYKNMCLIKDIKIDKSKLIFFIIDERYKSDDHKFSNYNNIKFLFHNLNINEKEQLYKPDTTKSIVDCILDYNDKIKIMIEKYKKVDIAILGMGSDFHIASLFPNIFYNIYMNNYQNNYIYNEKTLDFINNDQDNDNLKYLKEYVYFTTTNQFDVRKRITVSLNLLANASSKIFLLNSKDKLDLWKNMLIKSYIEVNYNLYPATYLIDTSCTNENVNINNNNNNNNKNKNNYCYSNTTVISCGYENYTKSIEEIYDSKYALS

Turning to `CN1CCC[C@H]1c1cccnc1` [Nicotine], in the data set with Dictyostelium discoideum, the “D. discoideum growth, positive control” value was “abolishes its growth”.

`O=C(Nc1ccc(Cl)cc1)N1CCN(c2ccc3nncn3n2)CC1` [MMV665917]: the “Selectivity Index C. parvum over mammalian cells” value in the data set on Cryptosporidium parvum is reported as above 20.

Regarding `CO[C@H]1/C=C/O[C@@]2(C)Oc3c(C)c(O)c4c(c3C2=O)C2=NC3(CCN(CC(C)C)CC3)NC2=C(NC(=O)/C(C)=C\C=C\[C@H](C)[C@H](O)[C@@H](C)[C@@H](O)[C@@H](C)[C@H](OC(C)=O)[C@@H]1C)C4=O` [rifabutin, reference compound], the “M. marinum intracellular growth, normalized value” in [1] was “under 0.10”. Further, the “Mycobacterium marinum relative growth DMSO=1 Antibiotic Assay” value with Mycobacterium marinum was “under 0.10”.

In the case of `O=C(O)C1Cc2c([nH]c3ccccc23)C(c2ccc(Cl)cc2Cl)N1` (stereo not shown) [MMV008138], in data set [2] (S2 Table Metabolomics, metabolite Acetyllysine), the Acetyllysine came to 0.5387. Also, in data set [2] (S2 Table Metabolomics, metabolite N-acetyl-L-ornithine), the N-acetyl-L-ornithine is reported as 0.5503. Moreover, in [2] (S2 Table Metabolomics, metabolite N-carbamoyl-L-aspartate), the N-carbamoyl-L-aspartate was found to be 0.144. Besides, the NADPH in data set [2] (S2 Table Metabolomics, metabolite NADPH) came to 0.4869. The dAMP in data set [2] (S2 Table Metabolomics, metabolite dAMP) turned out to be 0.6135. The dCMP in [2] (S2 Table Metabolomics, metabolite dCMP) stood at 0.1541. Moreover, the dTDP in data set [2] (S2 Table Metabolomics, metabolite dTDP) is recorded as 0.7214. For the same compound, the dTMP in data set [2] (S2 Table Metabolomics, metabolite dTMP) was found to be 0.483. In data set [2] (S2 Table Metabolomics, metabolite dTTP), the dTTP was 0.2857. In data set [2] (S2 Table Metabolomics, metabolite dihydroorotate), the dihydroorotate worked out at 0.2096. The orotate in data set [2] (S2 Table Metabolomics, metabolite orotate) came out at 0.1204. In data set [2] (S2 Table Metabolomics, peptide DLH), this compound showed a DLH of -0.1546. In data set [2] (S2 Table Metabolomics, peptide DLS/SDL/SID), the DLS/SDL/SID is reported as 0.007657. Further, the PD in data set [2] (S2 Table Metabolomics, peptide PD) was determined as 0.2545. The compound further displayed a PEE in [2] (S2 Table Metabolomics, peptide PEE) of 0.5615. The PVNF in data set [2] (S2 Table Metabolomics, peptide PVNF) was -0.063. Also, the 3-phosphoglycerate in [2] (metabolite 3-phosphoglycerate, S2 Table Metabolomics) worked out at 0.3297. Besides, in data set [2] (metabolite ADP-D-glucose, S2 Table Metabolomics), the ADP-D-glucose is 0.3003. Besides, the ATP in data set [2] (metabolite ATP, S2 Table Metabolomics) was determined as 0.2312. Also, the CDP in data set [2] (metabolite CDP, S2 Table Metabolomics, change in metabolite level after compound treatment) amounted to 0.6827. The D-sedoheptulose-1/7-phosphate in data set [2] (metabolite D-sedoheptulose-1/7-phosphate, S2 Table Metabolomics, change in metabolite level after compound treatment) is 0.414. In data set [2] (metabolite FAD, S2 Table Metabolomics), the FAD is given as 0.2533. In data set [2] (metabolite GMP, S2 Table Metabolomics, change in metabolite level after compound treatment), the GMP was -0.6458. For the same compound, the “NAD+” value in [2] (metabolite NAD+, S2 Table Metabolomics) is on record as 0.09564. For the same compound, the “NADP+” value in data set [2] (metabolite NADP+, S2 Table Metabolomics) came to 0.2678. Further, the “Octoluse Bisphosphate” value in data set [2] (metabolite Octoluse Bisphosphate, S2 Table Metabolomics, change in metabolite level after compound treatment) is 0.757. Besides, in data set [2] (metabolite Pyroglutamic acid, S2 Table Metabolomics), the Pyroglutamic acid was -0.1569. Also, the UDP-D-glucose in data set [2] (metabolite UDP-D-glucose, S2 Table Metabolomics) came out at 0.2273. In data set [2] (metabolite UDP-D-glucuronate, S2 Table Metabolomics), the UDP-D-glucuronate was 0.2472. The UDP-N-acetyl-glucosamine in data set [2] (metabolite UDP-N-acetyl-glucosamine, S2 Table Metabolomics) is reported as 0.2573. Besides, in data set [2] (metabolite UDP, S2 Table Metabolomics, change in metabolite level after compound treatment), the UDP worked out at 0.7153. In data set [2] (metabolite UMP, S2 Table Metabolomics, change in metabolite level after compound treatment), the UMP is given as -0.1378. In addition, the UTP in data set [2] (metabolite UTP, S2 Table Metabolomics, change in metabolite level after compound treatment) was 0.4566. Moreover, the a-ketoglutarate in [2] (metabolite a-ketoglutarate, S2 Table Metabolomics) is -0.4582. The citrate/isocitrate in [2] (metabolite citrate/isocitrate, S2 Table Metabolomics, change in metabolite level after compound treatment) is recorded as -0.1476. For the same compound, in [2] (metabolite cytidine, S2 Table Metabolomics), the cytidine is on record as -0.2541. Further, the dATP in [2] (metabolite dATP, S2 Table Metabolomics) was found to be 0.1704. Besides, the dGMP/AMP in data set [2] (metabolite dGMP/AMP, S2 Table Metabolomics, change in metabolite level after compound treatment) is 0.6095. In addition, the fumarate in [2] (metabolite fumarate, S2 Table Metabolomics, change in metabolite level after compound treatment) turned out to be 0.1788. Also, the glucose-1/6-phosphate in data set [2] (metabolite glucose-1/6-phosphate, S2 Table Metabolomics, change in metabolite level after compound treatment) came to 0.6615. Also, in data set [2] (metabolite glycerate, S2 Table Metabolomics, change in metabolite level after compound treatment), the glycerate is recorded as 0.3332. Besides, the guanine in data set [2] (metabolite guanine, S2 Table Metabolomics, change in metabolite level after compound treatment) is given as -0.07738. Besides, the guanosine in data set [2] (metabolite guanosine, S2 Table Metabolomics, change in metabolite level after compound treatment) is recorded as -0.4378. The hypoxanthine in [2] (metabolite hypoxanthine, S2 Table Metabolomics) is recorded as -0.1251. Also, the indole in [2] (metabolite indole, S2 Table Metabolomics) is recorded as -0.05929. Further, the inosine in [2] (metabolite inosine, S2 Table Metabolomics, change in metabolite level after compound treatment) was -0.03831. Moreover, in data set [2] (setting [9]), the 2_3-Diphosphoglyceric acid is recorded as 0.5774, the 4-phosphopantothenate is 0.6234, the 6-phospho-D-gluconate is recorded as 0.4127 and the FMN amounted to 0.5115. Further, in data set [2] (setting [9]), the IMP came out at 0.3745, the Pyrophosphate turned out to be 0.4065, the Sedoheptoluse bisphosphate worked out at 0.7391 and the cyclic-AMP amounted to 0.217. Also, in data set [2] (setting [9]), the glutathione disulfide is recorded as 0.4434, the lactate is given as -0.4969 and the myo-inositol was found to be 0.6581. For the same compound, the nicotinate in [2] (metabolite nicotinate, S2 Table Metabolomics) was -0.1339. Besides, in [2] (metabolite ornithine, S2 Table Metabolomics), the ornithine came out at 0.07192. Also, the phosphoenolpyruvate in [2] (metabolite phosphoenolpyruvate, S2 Table Metabolomics) is on record as 0.04449. Besides, the pyruvate in data set [2] (metabolite pyruvate, S2 Table Metabolomics, change in metabolite level after compound treatment) is -0.3198. For the same compound, the ribose-phosphate in data set [2] (metabolite ribose-phosphate, S2 Table Metabolomics) was determined as 0.3445. Also, the sarcosine/alanine in data set [2] (metabolite sarcosine/alanine, S2 Table Metabolomics, change in metabolite level after compound treatment) is given as 0.05421. The sn-glycerol-3-phosphate in data set [2] (metabolite sn-glycerol-3-phosphate, S2 Table Metabolomics) was -0.3078. The succinate/methylmalonic acid in data set [2] (metabolite succinate/methylmalonic acid, S2 Table Metabolomics, change in metabolite level after compound treatment) turned out to be 0.03332. Also, the uridine in [2] (metabolite uridine, S2 Table Metabolomics, change in metabolite level after compound treatment) was -0.07029. Also, the xanthosine in data set [2] (metabolite xanthosine, S2 Table Metabolomics, change in metabolite level after compound treatment) is recorded as -0.1854. Also, in data set [3], the “binding to 6-Phosphogluconolactonase (confirmation)” value was “binding”. Moreover, the “apicoplast targeting in words” value in [4] is listed as “targets the apicoplast”. Besides, the EC50 with P. falciparum stood at 350 nM. Moreover, the “rescue by IPP supplementation in words” value in [5] is on record as “highest level of rescue”.

As for `O=C(C1CCCCC1)N1CC(=O)N2CCc3ccccc3C2C1` (stereo not shown) [Praziquantel], the somule severity score in [6] amounted to 4. In addition, the values for the EC50 (in data set [7]; in the data set on S. mansoni adult worms) were 2200 nM and 200 nM, respectively. Besides, in data set [8] (48 h, 5µM), the “S. mansoni adult males 48hr motility assay” value is “zero”. For the same compound, the “S. mansoni adult males visual tox scale, 0 = none, 4=most damaged” value in data set [8] (48hr at 5 µM) is 4.

The term IC50 denotes the concentration needed to halve the response being measured. In the case of `O=c1nc(C=Cc2ccc(Br)cc2)oc2ccccc12` [MMV666599], the IC50 in the data set on PfCDPK4 is 700 nM. Moreover, the “binding to dUTPase (confirmation)” value at dUTPase was “binding”.
